Assay results taken from PubChem BioAssay AID2060489 (Molecular Pharmacology Branch, DTP, NCI, 2025).

Tested on: 922993-354-T-J3-PDC complex spheroids, viability
Assay: Anticancer human tumor 922993-354-T-J3-PDC patient-derived endometrial carcinoma cell line growth inhibition [GQUAD]
Conditions: for IC50: curve of first compound; for viability, T/C: stronger effect = lower value
Method in brief: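 Tumor cells were grown as complex spheroids with HUVEC endothelial cells and mesenchymal stem cells as stroma. G-quadruplex stabilizers were combined with targeted agents over half-log dilutions from near the clinical Cmax, or from 10 microM.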

[1] = second compound 0.0316 µM, first compound 0.0316 µM
[2] = second compound 0.0316 µM, first compound 0.1 µM
[3] = second compound 0.0316 µM, first compound 0.316 µM
[4] = second compound 0.0316 µM, first compound 1 µM
[5] = second compound 0.0316 µM, first compound 3.16 µM
[6] = second compound 0.0316 µM, first compound 10 µM
[7] = second compound 0.1 µM, first compound 0.0316 µM
[8] = second compound 0.1 µM, first compound 0.1 µM
[9] = second compound 0.1 µM, first compound 0.316 µM
[10] = second compound 0.1 µM, first compound 1 µM
[11] = second compound 0.1 µM, first compound 3.16 µM
[12] = second compound 0.1 µM, first compound 10 µM
[13] = second compound 0.316 µM, first compound 0.0316 µM
[14] = second compound 0.316 µM, first compound 0.1 µM
[15] = second compound 0.316 µM, first compound 0.316 µM
[16] = second compound 0.316 µM, first compound 1 µM
[17] = second compound 0.316 µM, first compound 3.16 µM
[18] = second compound 0.316 µM, first compound 10 µM
[19] = second compound 1 µM, first compound 0.0316 µM
[20] = second compound 1 µM, first compound 0.1 µM
[21] = second compound 1 µM, first compound 0.316 µM
[22] = second compound 1 µM, first compound 1 µM
[23] = second compound 1 µM, first compound 3.16 µM
[24] = second compound 1 µM, first compound 10 µM
[25] = second compound 3.16 µM, first compound 0.0316 µM
[26] = second compound 3.16 µM, first compound 0.1 µM
[27] = second compound 3.16 µM, first compound 0.316 µM
[28] = second compound 3.16 µM, first compound 1 µM
[29] = second compound 3.16 µM, first compound 3.16 µM
[30] = second compound 3.16 µM, first compound 10 µM
[31] = second compound 10 µM, first compound 0.0316 µM
[32] = second compound 10 µM, first compound 0.1 µM
[33] = second compound 10 µM, first compound 0.316 µM
[34] = second compound 10 µM, first compound 1 µM
[35] = second compound 10 µM, first compound 3.16 µM
[36] = second compound 10 µM, first compound 10 µM
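Note: spheroids exposed to compounds for seven days.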
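Throughout, for viability, T/C: 100% = DMSO vehicle control viability.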

**Q.** Nc1ccn(C2OC(CO)C(O)C2(F)F)c(=O)n1 (stereo unspecified) + CN(C)c1ccc(Nc2c3ccc(NC(=O)CCN4CCCC4)cc3nc3cc(NC(=O)CCN4CCCC4)ccc23)cc1 was tested. Which IC50 (second compound 0.0316 µM) did it give?
**A.** < 31.6 nM

**Q.** What about the IC50 (second compound 0.1 µM) of the same compound?
**A.** < 31.6 nM

**Q.** What about the IC50 (second compound 0.316 µM) of the same compound?
**A.** < 31.6 nM

**Q.** And the IC50 (second compound 1 µM)?
**A.** < 31.6 nM

**Q.** What about the IC50 (second compound 3.16 µM) of the same compound?
**A.** < 31.6 nM

**Q.** And the IC50 (second compound 10 µM)?
**A.** < 31.6 nM

**Q.** And the viability, T/C [1]?
**A.** 13.6%

**Q.** And the viability, T/C [2]?
**A.** 14.7%

**Q.** What about the viability, T/C [3] of the same compound?
**A.** 11.9%

**Q.** And the viability, T/C [4]?
**A.** 16.6%

**Q.** And the viability, T/C [5]?
**A.** 10.6%

**Q.** And the viability, T/C [6]?
**A.** 12.7%

**Q.** What about the viability, T/C [7] of the same compound?
**A.** 13.4%

**Q.** And the viability, T/C [8]?
**A.** 13.2%

**Q.** And the viability, T/C [9]?
**A.** 12.2%

**Q.** What about the viability, T/C [10] of the same compound?
**A.** 10.8%

**Q.** What about the viability, T/C [11] of the same compound?
**A.** 10.4%

**Q.** What about the viability, T/C [12] of the same compound?
**A.** 11.9%

**Q.** What about the viability, T/C [13] of the same compound?
**A.** 13.9%

**Q.** And the viability, T/C [14]?
**A.** 9.77%

**Q.** What about the viability, T/C [15] of the same compound?
**A.** 10.7%

**Q.** And the viability, T/C [16]?
**A.** 13.1%

**Q.** And the viability, T/C [17]?
**A.** 9.83%

**Q.** And the viability, T/C [18]?
**A.** 11.2%

**Q.** And the viability, T/C [19]?
**A.** 12.5%

**Q.** And the viability, T/C [20]?
**A.** 8.2%

**Q.** And the viability, T/C [21]?
**A.** 12%

**Q.** What about the viability, T/C [22] of the same compound?
**A.** 13%

**Q.** What about the viability, T/C [23] of the same compound?
**A.** 12%

**Q.** And the viability, T/C [24]?
**A.** 11.8%

**Q.** What about the viability, T/C [25] of the same compound?
**A.** 13.8%

**Q.** And the viability, T/C [26]?
**A.** 11.6%

**Q.** What about the viability, T/C [27] of the same compound?
**A.** 16.8%

**Q.** And the viability, T/C [28]?
**A.** 12.2%

**Q.** What about the viability, T/C [29] of the same compound?
**A.** 11.3%

**Q.** What about the viability, T/C [30] of the same compound?
**A.** 13.3%

**Q.** And the viability, T/C [31]?
**A.** 15.8%

**Q.** And the viability, T/C [32]?
**A.** 11.4%

**Q.** What about the viability, T/C [33] of the same compound?
**A.** 11.6%

**Q.** And the viability, T/C [34]?
**A.** 14.4%

**Q.** And the viability, T/C [35]?
**A.** 11%

**Q.** What about the viability, T/C [36] of the same compound?
**A.** 11.3%

**Q.** Which IC50 (second compound 0.0316 µM) does the source give for COc1cccc2c1C(=O)c1c(O)c3c(c(O)c1C2=O)CC(O)(C(=O)CO)CC3OC1CC(N)C(O)C(C)O1 (stereo unspecified) + Cc1[nH]c2ccc(F)cc2c1-c1nc2c3cccnc3c3ncccc3c2[nH]1 here?
**A.** 9800 nM

**Q.** And the IC50 (second compound 0.1 µM)?
**A.** > 10000 nM

**Q.** What about the IC50 (second compound 0.316 µM) of the same compound?
**A.** > 10000 nM

**Q.** And the IC50 (second compound 1 µM)?
**A.** > 10000 nM

**Q.** And the IC50 (second compound 3.16 µM)?
**A.** > 10000 nM

**Q.** And the IC50 (second compound 10 µM)?
**A.** 9330 nM

**Q.** What about the viability, T/C [1] of the same compound?
**A.** 120%

**Q.** What about the viability, T/C [2] of the same compound?
**A.** 114%

**Q.** And the viability, T/C [3]?
**A.** 99.5%

**Q.** What about the viability, T/C [4] of the same compound?
**A.** 83.7%

**Q.** And the viability, T/C [5]?
**A.** 76.3%

**Q.** What about the viability, T/C [6] of the same compound?
**A.** 46.1%

**Q.** And the viability, T/C [7]?
**A.** 118%

**Q.** What about the viability, T/C [8] of the same compound?
**A.** 96%

**Q.** And the viability, T/C [9]?
**A.** 86.7%

**Q.** What about the viability, T/C [10] of the same compound?
**A.** 66.3%

**Q.** And the viability, T/C [11]?
**A.** 105%

**Q.** And the viability, T/C [12]?
**A.** 56.1%

**Q.** What about the viability, T/C [13] of the same compound?
**A.** 96.5%

**Q.** What about the viability, T/C [14] of the same compound?
**A.** 105%

**Q.** What about the viability, T/C [15] of the same compound?
**A.** 92.6%

**Q.** And the viability, T/C [16]?
**A.** 94.1%

**Q.** And the viability, T/C [17]?
**A.** 73.2%

**Q.** What about the viability, T/C [18] of the same compound?
**A.** 56.1%

**Q.** What about the viability, T/C [19] of the same compound?
**A.** 122%

**Q.** What about the viability, T/C [20] of the same compound?
**A.** 91.4%

**Q.** What about the viability, T/C [21] of the same compound?
**A.** 72.3%

**Q.** And the viability, T/C [22]?
**A.** 80.1%

**Q.** And the viability, T/C [23]?
**A.** 81.3%

**Q.** What about the viability, T/C [24] of the same compound?
**A.** 53.8%

**Q.** What about the viability, T/C [25] of the same compound?
**A.** 120%

**Q.** And the viability, T/C [26]?
**A.** 73.8%

**Q.** And the viability, T/C [27]?
**A.** 71.4%

**Q.** And the viability, T/C [28]?
**A.** 88.7%

**Q.** And the viability, T/C [29]?
**A.** 74.6%

**Q.** What about the viability, T/C [30] of the same compound?
**A.** 46.9%

**Q.** What about the viability, T/C [31] of the same compound?
**A.** 97.2%

**Q.** And the viability, T/C [32]?
**A.** 81.8%

**Q.** And the viability, T/C [33]?
**A.** 89%

**Q.** And the viability, T/C [34]?
**A.** 98.4%

**Q.** What about the viability, T/C [35] of the same compound?
**A.** 103%

**Q.** And the viability, T/C [36]?
**A.** 47.1%

**Q.** Which results are given for O=C(NO)c1cnc(N2CCN(S(=O)(=O)c3ccc4ccccc4c3)CC2)nc1 + Cc1cnc(CNC(=O)c2c(=O)c3ccc(N4CCCN(C)CC4)nc3n3c2sc2ccccc23)cn1?
**A.** IC50 (second compound 0.0316 µM): 482 nM; IC50 (second compound 0.1 µM): 84.6 nM; IC50 (second compound 0.316 µM): < 31.6 nM; IC50 (second compound 1 µM): < 31.6 nM; IC50 (second compound 3.16 µM): < 31.6 nM; IC50 (second compound 10 µM): < 31.6 nM; viability, T/C [1]: 80.3%; viability, T/C [2]: 85%; viability, T/C [3]: 59.2%; viability, T/C [4]: 30.6%; viability, T/C [5]: 5.35%; viability, T/C [6]: 0.97%; viability, T/C [7]: 63.8%; viability, T/C [8]: 47.5%; viability, T/C [9]: 32.4%; viability, T/C [10]: 20.5%; viability, T/C [11]: 8.63%; viability, T/C [12]: 1.81%; viability, T/C [13]: 46.4%; viability, T/C [14]: 32%; viability, T/C [15]: 36.2%; viability, T/C [16]: 21.2%; viability, T/C [17]: 11.2%; viability, T/C [18]: 2.24%; viability, T/C [19]: 44.3%; viability, T/C [20]: 45.7%; viability, T/C [21]: 28.4%; viability, T/C [22]: 12.4%; viability, T/C [23]: 5.24%; viability, T/C [24]: 0.22%; viability, T/C [25]: 42%; viability, T/C [26]: 36.8%; viability, T/C [27]: 24.9%; viability, T/C [28]: 4.62%; viability, T/C [29]: 0.18%; viability, T/C [30]: 0.17%; viability, T/C [31]: 38.7%; viability, T/C [32]: 25%; viability, T/C [33]: 14.2%; viability, T/C [34]: 0.2%; viability, T/C [35]: 0.21%; viability, T/C [36]: 0.22%
